Experimental data published in paper PMC10455244, “Alpha-Mangostin: A Potent Inhibitor of TRPV3 and Pro-Inflammatory Cytokine Secretion in Keratinocytes” (International Journal of Molecular Sciences, 2023).

Target: T1, TRPV3 (G573C) (Homo sapiens, UniProt Q8NET8, G573C)
T1 construct: host or cells: HEK 293T (transient transfection, pEGFP-N1 co-transfected as a marker)
T1 sequence (Q8NET8 1-790 G573C): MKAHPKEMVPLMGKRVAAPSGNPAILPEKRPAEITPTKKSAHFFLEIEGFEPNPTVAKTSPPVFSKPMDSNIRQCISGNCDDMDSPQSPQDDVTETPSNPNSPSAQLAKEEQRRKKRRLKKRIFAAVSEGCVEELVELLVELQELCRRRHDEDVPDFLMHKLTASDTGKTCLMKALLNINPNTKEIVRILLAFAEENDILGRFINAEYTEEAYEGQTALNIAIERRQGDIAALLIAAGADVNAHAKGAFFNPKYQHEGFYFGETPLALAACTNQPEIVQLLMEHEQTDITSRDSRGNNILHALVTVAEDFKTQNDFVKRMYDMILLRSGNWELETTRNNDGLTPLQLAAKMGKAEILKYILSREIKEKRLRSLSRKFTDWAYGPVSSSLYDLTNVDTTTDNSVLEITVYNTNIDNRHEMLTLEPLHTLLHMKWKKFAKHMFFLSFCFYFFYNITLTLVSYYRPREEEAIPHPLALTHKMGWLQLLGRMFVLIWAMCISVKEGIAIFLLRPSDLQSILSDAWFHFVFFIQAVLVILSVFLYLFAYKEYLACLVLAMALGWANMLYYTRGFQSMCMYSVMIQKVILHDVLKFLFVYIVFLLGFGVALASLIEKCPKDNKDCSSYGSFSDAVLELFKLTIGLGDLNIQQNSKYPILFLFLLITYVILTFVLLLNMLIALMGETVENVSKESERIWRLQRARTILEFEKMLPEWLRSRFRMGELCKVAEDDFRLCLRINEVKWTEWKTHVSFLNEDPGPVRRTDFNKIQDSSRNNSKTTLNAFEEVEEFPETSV
Assay: Whole-cell patch-clamp, spontaneous current of TRPV3 G573C mutant in HEK 293T cells
Assay type: cell-based
Conditions: −100 mV, read-out: IC50, inhibition of spontaneous current of TRPV3 G573C mutant
Protocol: For electrophysiology recording and calcium measurement, 10 µM 74a (a TRPV3 inhibitor) was added about 6 h after transfection to inhibit channel activities and prevent cell death. First, the electrophysiology activities of the mutations were recorded using a whole-cell patch-clamp. Our data presented spontaneous TRPV3 currents when −100 mV to 100 mV ramp pulses were applied, which dramatically declined with the addition of 1 µM alpha-mangostin (Figure 4A).
Figure 4 Alpha-mangostin inhibited the activity of hyperactive TRPV3 mutant channels and rescued mutation-induced cell death. (A) Alpha-mangostin inhibited the channel current in representative TRPV3 (G573S)- and TRPV3 (G573C)-expressing HEK 293T cells. […] Currents were normalized to the response at −100 mV before adding alpha-mangostin. (C) Alpha-mangostin inhibited TRPV3-mediated intracellular calcium increase in TRPV3 (G573S)-expressing HEK 293T cells. […] The bar graph on the right summarizes the change in the intracellular calcium rise inhibited by alpha-mangostin. […]
In the whole-cell configuration, voltage ramps from −100 to +100 mV over 1 s were applied every 20 s and the holding potential was set at 0 mV. Sampling at 10 kHz and low-pass filtering at 5 kHz (w-c) were applied for all recorded currents. Recorded data were analyzed using Clampfit ver. […]

`COc1c(O)cc2oc3cc(O)c(CC=C(C)C)c(O)c3c(=O)c2c1CC=C(C)C` [Alpha-mangostin] gave an IC50 of 1940 ± 400 nM.
